Results reported in US9161925B2, “Therapeutic uses of beta-3 adrenergic receptor agonist derivatives in particular to modulate apoptosis” (SANOFI, priority 2007, dated 2015).

What was measured:
Format in all cases: cell-based, human
IL8 = assay: Cytometric Bead Array, IL8 in supernatants of myometrial strips
Method: (§1) Myometrial biopsies obtained from women with uncomplicated pregnancies were immediately transferred in sterile Dubelcco's Modified Eagle Medium (DMEM) and washed twice with sterile Phosphate Buffer Saline (PBS). Biopsies were cut into small strips, each being placed in a 24-well plate containing 2 ml of culture medium DMEM, without the use of antibiotics. Strips were then incubated at 37° C. with 5% CO2 for 48 h in order to allow cytokine levels to return to basal values (Fortunato S J, et al. Am J Reprod Immunol 1994; 32: 184-187).
(§2) In order to reproduce with LPS (Escherichia coli 055:B5) the findings on myometrial samples obtained from women with chorioamnionitis, myometrial strips were incubated with three different concentrations of LPS (50 ng/ml, 1 μg/ml and 10 μg/ml) at three different times (8 h, 24 h, 48 h). […]
(§3) Cytokines measurements were determined by Cytometric Bead Array (CBA; Bender MedSystems). Supernatants of 5 myometrial strips were incubated with labeled capture beads and detection reagent for 3 h in the dark at room temperature, and analyzed with a flow cytometer (FACSCalibur; BD Biosciences) by using the respective CBA Analysis software (BD Biosciences) and Bender MedSystems software. Cytokine standards for quantification (pg/mL) as well as the blanks were handled in the same manner as the samples. […]

caspase-3 transcripts = assay: Real time quantitative RT-PCR of caspase-3 transcripts in myometrial tissue; details: LPS alone 2.08±0.63
Method: as §1
In order to reproduce with LPS (Escherichia coli 055:B5) the findings on myometrial samples obtained from women with chorioamnionitis, myometrial strips were incubated with three different concentrations of LPS (50 ng/ml, 1 μg/ml and 10 μg/ml) at three different times (8 h, 24 h, 48 h). In a second set of experiments, in order to assess the role of TNF in LPS-induced apoptosis in myometrial tissue, the strips were incubated with LPS 10 μg/ml for 48 h with or without anti TNF antibodies (0.6 μg/ml) (Human TNF alpha/TNFSF1A antibody, R&D systems Europe, Lille, France, the concentration of the antibody used was chosen based on the manufacturer's recommendations). […]
Total RNA was prepared from 5 myometrial tissues obtained from 5 different women, using Trizol solution (Life Technologies, Groningen, The Netherlands) according to the manufacturer's instructions. […] Real time quantitative PCR analyses were performed using 25 ng of reverse transcribed total RNA with 200 nM of both sense and anti sense primers in a final volume of 25 μl using the SYBR Green PCR jumpstart reagent (Sigma, Saint Louis, Mo., USA) in an iCycler iQ real time detection system instrument (Bio-Rad, Marnes-la-Coquette, France). PCR products were also analyzed on edithium bromide stained agarose gel to ensure that a single amplicon of the expected size was indeed obtained. […]

BCL2 protein = assay: Western blot of BCL2 in myometrial strips stimulated with LPS
Method: as §1, with “184-187). […]” for “184-187).”
(§4) Snap-frozen myometrial tissues were homogenized with Ultra-Turrax in homogenization buffer [10 mM Tris-HCl (pH 7.4), 1 mM EDTA, […] leupeptine, 2 mM Pefabloc]. After an initial centrifugation at 500×g for 15 min at 4° C., total protein supernatant content was determined by the Bradford method with BSA as standard. […] Immunoreactive proteins were detected by chemiluminescence (ECL™ detection reagents, RPN2105, Amersham, USA) and exposure to a X-ray film (Hyperfilm™, Amersham Bioscience, USA). The intensities of the bands were analyzed densitometrically using the NIH Image 1.62 program and normalized with intensity of bands obtained with monoclonal antibody to Glyceraldehyde 3-Phosphate Dehydrogenase (GAPDH) used as protein loading control. Results are expressed as the mean±s.e.m. in Arbitrary Density Unit (A.D.U).

IL6 = assay: Cytometric Bead Array, IL6 in supernatants of myometrial strips
Method: as §1, §2, §3

BAX protein = assay: Western blot of BAX in myometrial strips stimulated with LPS
Method: as §1, with “184-187). […]” for “184-187).”
as §4

[1] = system: cleaved caspase-3 protein; assay: Western blot of cleaved caspase-3 in myometrial strips stimulated with LPS
Method: as §1, with “184-187). […]” for “184-187).”
as §4

[2] = tissues not stimulated with LPS (data not shown)
[3] = Compound A 10^-7, 10^-6, 10^-5 M with LPS 10 μg/ml 48 h, ANOVA P<0.01, FIG. 4

## CCOC(=O)c1ccc([C@H]2CC[C@H](NC[C@H](O)COc3ccc(O)c(NS(C)(=O)=O)c3)CC2)cc1.Cl [Compound A, Ethyl-4-{trans-4-[((2S)-2-hydroxy-3-{4-hydroxy-3[(methylsulfonyl)-amino]phenoxy}propyl)amino]cyclohexyl}benzoate hydrochloride]
IL8; Compound A with LPS, concentration dependent, ANOVA P=0.01, FIG. 5
  effect on LPS-induced IL8: decreased
IL8; [2]
  effect by itself on IL8 release: not effect
caspase-3 transcripts; LPS with Compound A 10^-5 M
  caspase-3 transcripts, fold increase normalized to GAPDH compared with controls: 0.93±0.41 fold
caspase-3 transcripts; LPS with Compound A 10^-6 M
  caspase-3 transcripts, fold increase normalized to GAPDH compared with controls: 0.84±0.53 fold
caspase-3 transcripts; LPS with Compound A 10^-7 M
  caspase-3 transcripts, fold increase normalized to GAPDH compared with controls: 1.17±0.81 fold
BCL2 protein; [3]
  antagonism of LPS-induced BCL2 protein down-regulation: antagonized in a concentration dependant manner
BCL2 protein; [2]
  effect by itself on BCL2 expression: no effect
IL6; Compound A with LPS, concentration dependent, not statistically significant, FIG. 5
  effect on LPS-induced IL6: decreased
IL6; [2]
  effect by itself on IL6 release: not effect
BAX protein; [3]
  antagonism of LPS-induced BAX protein up-regulation: antagonized in a concentration dependant manner
BAX protein; [2]
  effect by itself on BAX expression: no effect
[1]; Compound A 10^-7, 10^-6, 10^-5 M with LPS 10 μg/ml 48 h, concentration dependent, ANOVA P<0.001, FIG. 3
  antagonism of LPS-induced changes in cleaved caspase-3 expression: significantly antagonize
[1]; [2]
  effect by itself on cleaved caspase-3 expression: no effect
